Data published in patent US20220193205A1, “METHODS OF TREATING CANCER” (Foghorn Therapeutics Inc., priority 2019, published 2022).

Test system: ATRX null/ALT+ osteosarcoma cell line SAOS2
Assay: Cell viability by CellTiter-Glo after siRNA delivery
Type: cell-based
Conditions: compared to negative control siRNA, FIG. 3
Description: Procedure: SAOS2 cell line was seeded in 100 μL of media in 96-well plates (Corning 3904) excluding edge wells at the following density of 10000 cells per well. SOAS2 cells were seeded the day prior to transduction. Custom Stealth siRNA and Negative Control siRNA were ordered from ThermoFisher. The procedure for siRNA delivery was conducted based on the manufacturer's recommendation. The SMARCAL1 targeting siRNA sequence is: […] (SEQ ID NO: 356).
Cell viability was assayed using CellTiter-Glo (Promega G7572) at 100 μL per well. Luminescence was read using PerkinElmer EnVision 2105. Values were normalized to the average values from the negative control sgRNAs. Experiments were performed three times. Shown are the triplicate results of one representative experiment. Two tailed, type 3 Student's t-test was performed to determine statistical significance, which was conducted on Microsoft Excel (Microsoft).

UUUCACAGAGAAAUGCUUAUGCAGG (siRNA; commercial Stealth siRNA, chemistry not given here, further chemistry not given here; listed as Homo sapiens) [siRNA targeting SMARCAL-1, Custom Stealth siRNA targeting SMARCAL1, ordered from ThermoFisher]
cell viability: decreased viability
